# According to patent US20020119967A1, “Pharmaceutical composition for preventing or treating a disease associated with an excess of IL-12-production” (priority 2000, published 2002):
# Read-outs that look alike come from different tables or passages of the source.
# What was measured:
# [1] = tested on: dendritic cells; settings: cited from earlier work
# [2] = tested on: dendritic cells; test: Expression of cell surface molecules (CD1a, CD86, ICAM-1, CD83) on DC matured in presence of PDE4 inhibitors, flow cytometry; assay type: cell-based, human
# Description: (§1) Dendritic cells were matured for 2 days with LPS in the presence or absence of the PDE4 inhibitors Ariflo or Rolipram and analysed for the expression of cell surface molecules by flow cytometry. In the left corner of each figure the mean fluorescence intensity (Mn).
# as §1, with “with the maturation factors TNF-α plus IL-1β (referred to as MF)” for “with LPS”, “Ariflo and” for “Ariflo or”
# At day 6, the maturation of CD1a^+ DC was induced by a 2-day exposure to either LPS (250 ng/ml; Difco, Detroit, Mich.) or a combination of the cytokines rhIL-1β (10 ng/ml), and TNF-α (25 ng/ml) both obtained from Pharma Biotechnologie, Hannover, Germany. Maturation was induced in the absence or presence of PDE4 inhibitors (10 μM, unless stated otherwise) or PGE2 (10^−6 M; Sigma, St. Louis,Mass.). Where indicated, DC were kept in non-maturing conditions during 2 days.
# The mouse mAbs against the following human molecules were used: CD1a (OKT6; Ortho Diagnostic System, Beerse, Belgium), ICAM-1, CD86 (Pharmingen, San Diego, Calif.), CD83 (HB15a, IgG2b; Immunotech, Marseille, France), followed by FITC-conjugated goat anti-mouse mAb (Jackson Immunoresearch Laboratories, West Grove, Pa.).
# The maturation process of DC is associated with the appearance of CD83 and upregulation of co-stimulatory molecules like CD86. The study whether the presence of PDE4 inhibitors during DC maturation could affect the cell surface expression of the DC-associated marker CD1a, the co-stimulatory molecules CD86 and ICAM-1, and the DC maturation marker CD83, therefore the study of the expression of these markers after treatment has been performed.
# [3] = tested on: immature DC; test: LPS plus IFN-γ-induced cytokine production by immature DC; assay type: cell-based, human; settings: immature DC stimulated with LPS and IFN-γ, 24 h supernatants; for IL-12p70 production / TNF-α production: vs DMSO-treated DC
# Experimental: FIG. 1 illustrates the inhibitory effect of PDE 4 inhibitors on LPS plus IFN-γ-induced cytokine production by immature DC. DC (2×10^4 cells/well) were stimulated with LPS and IFN-γ combined with the indicated concentrations of PDE4 inhibitors (Ariflo or Rolipram). Results are expressed as the mean cytokine production in ng/ml of duplicate cultures (24h supernatants). A: IL-12p70; B: TNF-α; C: IL-6. Cytokine production is expressed as ng/ml.
# Venous blood from healthy donors is collected by venipuncture in sodium-heparin containing tubes (VT100H; Venoject, Terumo Europe, Leuven, Belgium). Peripheral blood mononuclear cells (PBMC) are isolated by density centrifugation on Lymphoprep (Nycomed, Torshov, Norway). Subsequently, PBMC are centrifuged on a Percoll (Pharmacia, Uppsala, Sweden) gradient consisting of three density layers (1.076, 1.059 and 1.045 g/ml). The light density fraction floating on the middle layer, which contained predominantly monocytes, is seeded in 24-well culture plates (Costar, Cambridge, Mass.) at a density of 5×10^5 cells/well. After 30 min of incubation at 37° C., nonadherent cells are removed; adherent cells are cultured in Iscove's modified Dulbecco's medium (Life Technologies, Paisley, U.K.) containing gentamycin (86 μg/ml; Duchefa, Haarlem, The Netherlands) and 1% FCS (Hyclone, Logan, Utah.) and supplemented with GM-CSF (500 U/ml) and IL-4 (250 U/ml) to obtain DC. At day 3, the media, including the supplements, are refreshed. At day 6, immature CD1a^+CD14^− DC are obtained.
# Measurements of IL-12p70 levels in culture supernatants were performed by a specific solid-phase sandwich ELISA OptEI™ human IL-12P70 (Pharmingen San Diego, Calif.). Measurements of IL-6 and TNF-α were performed by ELISA using pairs of specific mAbs and recombinant cytokine standards obtained from BioSource International (Camarillo, Calif.). The limits of detection of these ELISA are as follows: IL-6, 20 pg/ml; IL-12p70, 3 pg/ml; and TNF-α, 20 pg/ml.
# In contrast, the production of IL-6 by the immature DC was not affected by any of the inhibitors.
# [4] = tested on: Naive Th cells (ThN); test: Naive T cell differentiation (Th1/Th2) after co-culture with DC matured in presence of PDE4 inhibitors, intracellular IFN-γ/IL-4 staining; assay type: cell-based, human; settings: DC matured with MF plus 10 μM inhibitor
# [5] = tested on: immature DC; test: CD40-induced IL-12 production by immature DC stimulated with J558-CD40L cells; assay type: cell-based, human; settings: 10 μM inhibitor, J558-CD40L stimulation, 24 h supernatant
# Experimental: FIG. 2 illustrates the inhibitory effect of PDE4 inhibitors on CD40-induced IL12 production by immature DC. DC (2×10^4 cells/well) were stimulated with J558-CD40L cells in the presence of 10 μM of the indicated PDE4 inhibitors (Ariflo, Rolipram, Diazepino-indole or Pirazolo [4,3-e] diazepine). Results are expressed as the cytokine production in pg/ml of 24 h supernatant of cell cultures. The data shown are from one representative experiment out of three giving similar results. Venous blood from healthy donors is collected by venipuncture in sodium-heparin containing tubes ([…], Terumo Europe, Leuven, Belgium). Peripheral blood mononuclear cells (PBMC) are isolated by density centrifugation on Lymphoprep (Nycomed, Torshov, Norway). Subsequently, PBMC are centrifuged on a Percoll (Pharmacia, Uppsala, Sweden) gradient consisting of three density layers (1.076, 1.059 and 1.045 g/ml). The light density fraction floating on the middle layer, which contained predominantly monocytes, is seeded in 24-well culture plates (Costar, Cambridge, Mass.) at a density of 5×10^5 cells/well. […]
# [6] = DC matured 2 days with TNF-α plus IL-1β (MF)
Molecule,IL-12 production by dendritic cells ([1]; shown in the art),expression of cell surface molecules (phenotype of mature DC) ([2]; DC matured 2 days with LPS),"expression of cell surface molecules (phenotype of mature DC) [2, 6]",IL-6 production [3],IL-12p70 production [3],TNF-α production [3],IFN-γ (%) positive cells ([4]; Experiment 1) [%],IL-4 positive cells (%) ([4]; Experiment 1),IFN-γ (%) positive cells ([4]; Experiment 2) [%],IL-4 (%) positive cells ([4]; Experiment 2) [%],IFN-g (%) positive cells ([4]; Experiment 3) [%],IL-4 (%) positive cells ([4]; Experiment 3) [%],IL-12 production [5],IL-12 production by dendritic cells [1]
CC(C)(C)NCC(O)c1ccc(O)c(CO)c1 (stereo not drawn) [salbutamol],inhibit IL-12 production,,,,,,,,,,,,,
COc1ccc(C2CNC(=O)C2)cc1OC1CCCC1 (stereo not drawn) [Rolipram],,absence of phenotypic effect,absence of phenotypic effect,not affected,reduced ability to produce,reduced ability to produce,7.2,13.5,35.4,1.1,24.5,5.7,able to inhibit IL-12 production,
COc1ccc([C@]2(C#N)CC[C@@H](C(=O)O)CC2)cc1OC1CCCC1 [Ariflo],,absence of phenotypic effect,absence of phenotypic effect,not affected,reduced ability to produce,reduced ability to produce,4.7,15.1,29.6,2.0,24.0,6.2,able to inhibit IL-12 production,
CCCCC[C@H](O)/C=C/[C@H]1[C@H](O)CC(=O)[C@@H]1C/C=C\CCCC(=O)O [prostaglandin E2],inhibit IL-12 production,,,,,,,,,,,,,
cholera toxin,,,,,,,,,,,,,,inhibit IL-12 production
